Experimental data published in patent US20250136576A1, “Heterocyclic Compounds and Uses Thereof” (ACEA Therapeutics, Inc., priority 2021, published 2025).
Where two headings read alike, the source gives them in different places.

Legend:
Type in all cases: cell-based
[1] = tested on: H1975 cells; assay: Cell proliferation and growth inhibition assay (CCK-8) in H1975; settings: treated with test compounds for 72 hrs, CCK-8 viability, read-out: EGFR IC50 in H1975
Method: (§1) MV-4-11 and H1975 cells were obtained from the American Type Culture Collection and KM12-luc cells were obtained from JCRB Cell Bank. All cell lines were maintained at 37° C. with 5% C02, in media supplemented with 10% fetal bovine serum and penicillin (100 units/mL) and streptomycin (100 μg/mL). MV-4-11 cells were maintained in Iscove's Modified Dubecco's Medium, H1975 cells were cultured with RPMI 1640 media, and KM12-luc cells were maintained in Dulbecco's Modification of Eagle's Medium. CCK-8 reagent was obtained from Yeasen.
(§2) Cell proliferation was assessed by CCK-8 assay (Yeasen) per the manufacturer's instructions. The MV-4-11 (AML), H1975, and KM12-luc cells were seeded at 30,000, 3,000 and 2,500 cells per well onto 96-well plates, and after a 24 h incubation, the cells were treated with test compounds for 72 hrs. Cell viability was assayed by incubating the cells with CCK-8 reagent for 1-4 hrs. Absorbance was measured at OD450 using the Beckman DTX880. The data was calculated using GraphPad Prism version 6.01. The IC50 values were fitted using a non-linear regression model with a sigmoidal dose response.

[2] = tested on: MV-4-11 (AML) cells; assay: Cell proliferation and growth inhibition assay (CCK-8) in MV-4-11; settings: Homo sapiens, MV4-11; MV-4-11 cells, treated with test compounds for 72 hrs, CCK-8 viability
Method: as §1, §2

[3] = tested on: KM12-luc cells; assay: Cell proliferation and growth inhibition assay (CCK-8) in KM12-luc; settings: KM12-luc cells, treated with test compounds for 72 hrs, CCK-8 viability, read-out: NTRK IC50 in KM12-luc
Summary of the method: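 Cells were grown at 37 °C, 5% CO2 with 10% FBS: MV-4-11 in IMDM, H1975 in RPMI 1640, KM12-luc in DMEM. Viability was read by CCK-8 (1-4 hrs reagent incubation, absorbance at OD450). IC50 came from a non-linear sigmoidal dose-response fit.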

IC50 ([1]; Homo sapiens, NCI-H1975, 72 h) [nM]	IC50 [2] [nM]	IC50 [1] [nM]	Compound	IC50 ([3]; KM12-Luc, 72 h) [nM]	IC50 [3] [nM]
> 20000	> 1000		CC(=O)Nc1cc(Nc2ncc(Cl)c(-c3cnc(C(C)C)n3C)n2)ccc1N(C)CCN(C)C [Compound 452, N-(5-((5-chloro-4-(2-isopropyl-1-methyl-1H-imidazol-5-yl)pyrimidin-2-yl)amino)-2-((2-(dimethylamino)ethyl)(methyl)amino)phenyl)acetamide]		
1560			COc1cccc2c(-c3nc(Nc4ccc(N5CC[C@H](N(C)C)C5)c(NC(C)=O)c4)ncc3Cl)cn(C)c12 [Compound S-435, (S)—N-(5-(5-chloro-4-(7-methoxy-1-methyl-1H-indol-3-yl)pyrimidin-2-ylamino)-2-(3-(dimethylamino)pyrrolidin-1-yl)phenyl)acetamide]	48.1	
26.1			COc1cccc2c(-c3nc(Nc4cc(NC(C)=O)c(N(C)CCN(C)C)cc4F)ncc3C(F)(F)F)c[nH]c12 [Compound 378, N-(2-((2-(dimethylamino)ethyl)(methyl)amino)-4-fluoro-5-((4-(7-methoxy-1H-indol-3-yl)-5-(trifluoromethyl)pyrimidin-2-yl)amino)phenyl)acetamide]	43.4	
461			CC(=O)Nc1cc(Nc2ncc(C(F)(F)F)c(-c3cn(C)c4c(C)cccc34)n2)ccc1N1CC[C@H](N(C)C)C1 [Compound S-373, (S)—N-(5-((4-(1,7-dimethyl-1H-indol-3-yl)-5-(trifluoromethyl)pyrimidin-2-yl)amino)-2-(3-(dimethylamino)pyrrolidin-1-yl)phenyl)acetamide]	21.1	
940			COc1cccc2c(-c3nc(Nc4ccc(N5CC[C@@H](N(C)C)C5)c(NC(C)=O)c4)ncc3C(F)(F)F)cn(C)c12 [Compound R-389, (R)—N-(2-(3-(dimethylamino)pyrrolidin-1-yl)-5-((4-(7-methoxy-1-methyl-1H-indol-3-yl)-5-(trifluoromethyl)pyrimidin-2-yl)amino)phenyl)acetamide]	24.8	
66.5			CC(=O)Nc1cc(Nc2ncc(Cl)c(-c3c[nH]c4c(C)cccc34)n2)ccc1N(C)CCN(C)C [Compound 423, N-(5-((5-chloro-4-(7-methyl-1H-indol-3-yl)pyrimidin-2-yl)amino)-2-((2-(dimethylamino)ethyl)(methyl)amino)phenyl)acetamide]	4.7	
898			COc1cccc2c(-c3nc(Nc4ccc(N5CC[C@H](N(C)C)C5)c(NC(C)=O)c4)ncc3C(F)(F)F)cn(C)c12 [Compound S-389, (S)—N-(2-(3-(dimethylamino)pyrrolidin-1-yl)-5-((4-(7-methoxy-1-methyl-1H-indol-3-yl)-5-(trifluoromethyl)pyrimidin-2-yl)amino)phenyl)acetamide]	23.5	
380			CC(=O)Nc1cc(Nc2ncc(Cl)c(-c3c[nH]c4c(F)cccc34)n2)ccc1N(C)CCN(C)C [Compound 412, N-(5-((5-chloro-4-(7-fluoro-1H-indol-3-yl)pyrimidin-2-yl)amino)-2-((2-(dimethylamino)ethyl)(methyl)amino)phenyl)acetamide]	8.4	
1010			CC(=O)Nc1cc(Nc2ncc(Cl)c(-c3cn(C)c4ccccc34)n2)ccc1NCCN(C)C [Compound 400a, N-(5-((5-chloro-4-(1-methyl-1H-indol-3-yl)pyrimidin-2-yl)amino)-2-((2-(dimethylamino)ethyl)amino)phenyl)acetamide]	42	
923			CC(=O)Nc1cc(Nc2ncc(C(F)(F)F)c(-c3cn(C)c4c(C)cccc34)n2)ccc1N1CC[C@@H](N(C)C)C1 [Compound R-373, (R)—N-(5-((4-(1,7-dimethyl-1H-indol-3-yl)-5-(trifluoromethyl)pyrimidin-2-yl)amino)-2-(3-(dimethylamino)pyrrolidin-1-yl)phenyl)acetamide]	22.8	
328			CCN(CCN(C)C)c1ccc(Nc2ncc(Cl)c(-c3c[nH]c4ccccc34)n2)cc1NC(C)=O [Compound 442, N-(5-((5-chloro-4-(1H-indol-3-yl)pyrimidin-2-yl)amino)-2-((2-(dimethylamino)ethyl)(ethyl)amino)phenyl)acetamide]	6.4	
862			CC(=O)Nc1cc(Nc2ncc(Cl)c(-c3c[nH]c4ccccc34)n2)cc(F)c1N1CCC(N(C)C)C1 (stereo not shown) [Compound 392, N-(5-((5-chloro-4-(1H-indol-3-yl)pyrimidin-2-yl)amino)-2-(3-(dimethylamino)pyrrolidin-1-yl)-3-fluorophenyl)acetamide]	18.1	
506			COc1cccc2c(-c3nc(Nc4ccc(N(C)CCN(C)C)c(NC(C)=O)c4)ncc3Cl)c[nH]c12 [Compound 433, N-(5-(5-chloro-4-(7-methoxy-1H-indol-3-yl)pyrimidin-2-ylamino)-2-((2-(dimethylamino)ethyl)(methyl)amino)phenyl)acetamide]	13.9	

Further lines, the molecule ahead of its results:

Compound	IC50 ([1]; Homo sapiens, NCI-H1975, 72 h) [nM]	IC50 [2] [nM]	IC50 [1] [nM]	IC50 ([3]; KM12-Luc, 72 h) [nM]	IC50 [3] [nM]
CC(=O)Nc1cc(Nc2nc(-c3c[nH]c4ccccc34)c3cc[nH]c3n2)cc(F)c1N(C)CCN(C)C [Compound 248b, N-(5-((4-(1H-indol-3-yl)-7H-pyrrolo[2,3-d]pyrimidin-2-yl)amino)-2-((2-(dimethylamino)ethyl)(methyl)amino)-3-fluorophenyl)acetamide]			1050		17.1
CC(=O)Nc1cc(Nc2ncc(C(F)(F)F)c(-c3cn(C)c4c(C)cccc34)n2)ccc1N(C)CCN(C)C [Compound 368, N-(5-((4-(1,7-dimethyl-1H-indol-3-yl)-5-(trifluoromethyl)pyrimidin-2-yl)amino)-2-((2-(dimethylamino)ethyl)(methyl)amino)phenyl)acetamide]	356			22.9	
CCC(=O)Nc1cc(Nc2ncc(C(F)(F)F)c(-c3c[nH]c4ccccc34)n2)ccc1N(C)CCN(C)C [Compound 298, N-(5-((4-(1H-indol-3-yl)-5-(trifluoromethyl)pyrimidin-2-yl)amino)-2-((2-(dimethylamino)ethyl)(methyl)amino)phenyl)propionamide]	289			44	
CCC(=O)Nc1cc(Nc2nc(-c3cn(C)c4ccccc34)c3cc[nH]c3n2)ccc1N(CC)CCN(C)C [Compound 212b, N-(2-((2-(dimethylamino)ethyl)(ethyl)amino)-5-((4-(1-methyl-1H-indol-3-yl)-7H-pyrrolo[2,3-d]pyrimidin-2-yl)amino)phenyl)propionamide]	1660			37	
CCN(CCN(C)C)c1cc(F)c(Nc2nc(-c3cn(C)c4ccccc34)c3cc[nH]c3n2)cc1NC(C)=O [Compound 201, N-(2-((2-(dimethylamino)ethyl)(ethyl)amino)-4-fluoro-5-((4-(1-methyl-1H-indol-3-yl)-7H-pyrrolo[2,3-d]pyrimidin-2-yl)amino)phenyl)acetamide]	1100			444	
CC(=O)Nc1cc(Nc2ncc(C(F)(F)F)c(-c3cn(C)c4ccccc34)n2)ccc1N(C)CCN(C)C [Compound 305, N-(2-((2-(dimethylamino)ethyl)(methyl)amino)-5-((4-(1-methyl-1H-indol-3-yl)-5-(trifluoromethyl)pyrimidin-2-yl)amino)phenyl)acetamide]			653		28.9
CCC(=O)Nc1cccc(Nc2ncc(F)c(Nc3ccc(N4CCN(C(C)=O)CC4)cc3OC)n2)c1 [Compound 156, N-(3-((4-((4-(4-acetylpiperazin-1-yl)-2-methoxyphenyl)amino)-5-fluoropyrimidin-2-yl)amino)phenyl)propionamide]	2800			370	
CC(=O)Nc1cc(Nc2ncc(C(F)(F)F)c(-c3cn(C)c4ccccc34)n2)ccc1N(C)CCN(C)C [Compound 296, N-(2-((2-(dimethylamino)ethyl)(methyl)amino)-5-((4-(1-methyl-1H-indol-3-yl)-5-(trifluoromethyl)pyrimidin-2-yl)amino)phenyl)acetamide]	1070				10.7
CC(=O)Nc1cc(Nc2ncc(C(F)(F)F)c(-c3c[nH]c4c(C)cccc34)n2)c(F)cc1N(C)CCN(C)C [Compound 362, N-(2-((2-(dimethylamino)ethyl)(methyl)amino)-4-fluoro-5-((4-(7-methyl-1H-indol-3-yl)-5-(trifluoromethyl)pyrimidin-2-yl)amino)phenyl)acetamide]	18.6			32.6	
CC(=O)Nc1cc(Nc2nc(-c3c[nH]c4ccccc34)c3cc[nH]c3n2)cc(F)c1N(C)CCN(C)C [Compound 248a, N-(5-((4-(1H-indol-3-yl)-7H-pyrrolo[2,3-d]pyrimidin-2-yl)amino)-2-((2-(dimethylamino)ethyl)(methyl)amino)-3-fluorophenyl)acetamide]			442	12.8	
